Measured values taken from US20130065931A1, “METHODS FOR REDUCING WIREWORM DAMAGE TO CROPS” (priority 2011, published 2013).

System: wireworm
Experiment: Efficacy of chemical treatments on wireworm in potatoes grown in Washington State
Format: in vivo
Settings: result in words; values only in the figure
Text: Experimental procedure for determining the efficacy of various chemical treatments on wire-worm in potatoes grown in Washington State, United States. Potato seed Solarium tuberosum L., ‘Russet Burbank’ was used in this experiment. Seeds were planted at a depth of 8 inches with spacing within the row at 10 inches and between rows at 34 inches. The experimental site was a 12 ft. by 20 ft. plot containing four experimental replications. [table] [table] [table]

CCOC(=O)OC1=C(c2cc(C)ccc2C)C(=O)N[C@]12CC[C@@H](OC)CC2 [spirotetramat]
percent reduction in wireworm infestation of potatoes (FIG. 3): confirm the efficacy
